Data from ChEMBL document CHEMBL4507276 (2021).

How the values were obtained:
Rattus norvegicus = species: Rattus norvegicus; conditions: Compound concentration 10.0 uM
[1] = target: Serine/threonine-protein kinase RIO3 (Homo sapiens) (UniProt O14730); conditions: Compound concentration 1000.0 nM
[2] = target: T1, Serine/threonine-protein kinase D2 (Homo sapiens) (UniProt Q9BZL6); conditions: Compound concentration 1000.0 nM
T1 sequence (whole entry): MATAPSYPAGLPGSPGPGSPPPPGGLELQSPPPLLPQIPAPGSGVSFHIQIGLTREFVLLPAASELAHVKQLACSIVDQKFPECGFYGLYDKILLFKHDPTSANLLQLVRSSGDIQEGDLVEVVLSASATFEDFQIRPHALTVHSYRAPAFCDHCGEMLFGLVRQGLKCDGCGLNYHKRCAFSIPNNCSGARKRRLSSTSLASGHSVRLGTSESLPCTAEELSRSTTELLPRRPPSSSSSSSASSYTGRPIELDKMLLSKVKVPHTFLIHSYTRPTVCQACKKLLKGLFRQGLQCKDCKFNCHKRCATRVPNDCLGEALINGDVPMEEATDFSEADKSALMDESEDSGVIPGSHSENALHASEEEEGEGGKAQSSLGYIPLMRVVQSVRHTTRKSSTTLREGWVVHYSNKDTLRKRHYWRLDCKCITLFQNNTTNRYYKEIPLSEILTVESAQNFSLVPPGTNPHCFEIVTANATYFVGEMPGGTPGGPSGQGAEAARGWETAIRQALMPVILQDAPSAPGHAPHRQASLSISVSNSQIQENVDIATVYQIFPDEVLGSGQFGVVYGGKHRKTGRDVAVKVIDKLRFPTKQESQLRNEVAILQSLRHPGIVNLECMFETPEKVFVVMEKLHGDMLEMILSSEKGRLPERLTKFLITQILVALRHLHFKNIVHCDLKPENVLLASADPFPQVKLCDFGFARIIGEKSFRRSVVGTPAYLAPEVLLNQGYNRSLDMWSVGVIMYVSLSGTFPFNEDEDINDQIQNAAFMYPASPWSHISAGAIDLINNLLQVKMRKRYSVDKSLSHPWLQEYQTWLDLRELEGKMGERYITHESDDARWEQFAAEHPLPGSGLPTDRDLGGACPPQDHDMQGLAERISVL

[3] = target: Maternal embryonic leucine zipper kinase (Homo sapiens) (UniProt Q14680); conditions: Compound concentration 1000.0 nM
Maternal embryonic leucine zipper kinase (Homo sapiens), sequence (Q14680 whole entry, looked up): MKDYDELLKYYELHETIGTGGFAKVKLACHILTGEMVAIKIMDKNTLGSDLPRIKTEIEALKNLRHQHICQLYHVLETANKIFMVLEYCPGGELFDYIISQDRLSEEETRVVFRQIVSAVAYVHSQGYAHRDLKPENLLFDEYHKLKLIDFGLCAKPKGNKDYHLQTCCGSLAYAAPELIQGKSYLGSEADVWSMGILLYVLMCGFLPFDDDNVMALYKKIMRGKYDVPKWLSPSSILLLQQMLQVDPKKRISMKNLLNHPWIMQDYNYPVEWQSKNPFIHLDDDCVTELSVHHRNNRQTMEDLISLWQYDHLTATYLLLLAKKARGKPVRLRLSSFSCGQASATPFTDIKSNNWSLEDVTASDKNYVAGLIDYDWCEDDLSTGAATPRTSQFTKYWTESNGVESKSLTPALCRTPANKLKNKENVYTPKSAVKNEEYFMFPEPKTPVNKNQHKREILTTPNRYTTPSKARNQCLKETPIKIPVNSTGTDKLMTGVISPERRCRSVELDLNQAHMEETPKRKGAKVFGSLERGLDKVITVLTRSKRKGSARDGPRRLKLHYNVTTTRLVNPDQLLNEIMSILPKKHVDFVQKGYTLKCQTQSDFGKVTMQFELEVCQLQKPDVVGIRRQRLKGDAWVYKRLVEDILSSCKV

[4] = target: Serine/threonine-protein kinase tousled-like 1 (Homo sapiens) (UniProt Q9UKI8); conditions: Compound concentration 1000.0 nM
Serine/threonine-protein kinase tousled-like 1 (Homo sapiens), sequence (Q9UKI8 whole entry): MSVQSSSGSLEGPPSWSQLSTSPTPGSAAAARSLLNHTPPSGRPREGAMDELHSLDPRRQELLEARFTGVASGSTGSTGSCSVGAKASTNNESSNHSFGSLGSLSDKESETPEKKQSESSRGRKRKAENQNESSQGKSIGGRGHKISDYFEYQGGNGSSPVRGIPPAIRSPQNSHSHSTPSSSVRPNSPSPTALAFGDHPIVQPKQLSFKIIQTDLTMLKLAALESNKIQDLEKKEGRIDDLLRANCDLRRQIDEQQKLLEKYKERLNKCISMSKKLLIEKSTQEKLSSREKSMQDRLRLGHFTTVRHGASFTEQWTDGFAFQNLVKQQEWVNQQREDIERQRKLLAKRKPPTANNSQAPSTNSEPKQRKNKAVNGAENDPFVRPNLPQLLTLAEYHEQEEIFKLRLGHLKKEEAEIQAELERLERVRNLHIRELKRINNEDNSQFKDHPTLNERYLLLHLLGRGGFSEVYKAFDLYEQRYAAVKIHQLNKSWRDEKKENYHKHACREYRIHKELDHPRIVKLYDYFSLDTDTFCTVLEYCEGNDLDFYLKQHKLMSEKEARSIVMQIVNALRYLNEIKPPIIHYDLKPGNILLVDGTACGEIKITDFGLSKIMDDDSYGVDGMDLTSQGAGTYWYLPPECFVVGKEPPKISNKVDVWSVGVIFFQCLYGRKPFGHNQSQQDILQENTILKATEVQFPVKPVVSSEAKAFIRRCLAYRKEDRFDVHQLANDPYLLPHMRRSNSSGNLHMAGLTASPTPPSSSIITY

[5] = target: Mitogen-activated protein kinase 8 (Homo sapiens) (UniProt P45983); conditions: Compound concentration 1000.0 nM
Mitogen-activated protein kinase 8 (Homo sapiens), sequence (P45983 whole entry): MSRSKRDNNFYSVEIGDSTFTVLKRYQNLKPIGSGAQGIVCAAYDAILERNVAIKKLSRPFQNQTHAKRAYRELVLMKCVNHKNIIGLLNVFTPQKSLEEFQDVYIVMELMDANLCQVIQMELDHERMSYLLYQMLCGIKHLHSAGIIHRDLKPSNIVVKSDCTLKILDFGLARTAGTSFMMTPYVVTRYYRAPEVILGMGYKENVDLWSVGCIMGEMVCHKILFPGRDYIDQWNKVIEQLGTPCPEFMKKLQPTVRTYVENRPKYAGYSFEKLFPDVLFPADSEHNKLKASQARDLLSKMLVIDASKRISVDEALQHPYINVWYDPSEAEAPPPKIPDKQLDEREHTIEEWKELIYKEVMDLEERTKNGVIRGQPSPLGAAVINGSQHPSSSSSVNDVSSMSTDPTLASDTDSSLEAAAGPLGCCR

[6] = tested on: Tyrosine-protein kinase ABL1 (Homo sapiens), P00519 [M351T]; conditions: Compound concentration 1000.0 nM
[7] = target: Fibroblast growth factor receptor 1 (Homo sapiens) (UniProt P11362); conditions: Compound concentration 1000.0 nM
[8] = target: T2, Inhibitor of nuclear factor kappa-B kinase subunit beta (Homo sapiens) (UniProt O14920); conditions: Compound concentration 1000.0 nM
T2 sequence (whole entry): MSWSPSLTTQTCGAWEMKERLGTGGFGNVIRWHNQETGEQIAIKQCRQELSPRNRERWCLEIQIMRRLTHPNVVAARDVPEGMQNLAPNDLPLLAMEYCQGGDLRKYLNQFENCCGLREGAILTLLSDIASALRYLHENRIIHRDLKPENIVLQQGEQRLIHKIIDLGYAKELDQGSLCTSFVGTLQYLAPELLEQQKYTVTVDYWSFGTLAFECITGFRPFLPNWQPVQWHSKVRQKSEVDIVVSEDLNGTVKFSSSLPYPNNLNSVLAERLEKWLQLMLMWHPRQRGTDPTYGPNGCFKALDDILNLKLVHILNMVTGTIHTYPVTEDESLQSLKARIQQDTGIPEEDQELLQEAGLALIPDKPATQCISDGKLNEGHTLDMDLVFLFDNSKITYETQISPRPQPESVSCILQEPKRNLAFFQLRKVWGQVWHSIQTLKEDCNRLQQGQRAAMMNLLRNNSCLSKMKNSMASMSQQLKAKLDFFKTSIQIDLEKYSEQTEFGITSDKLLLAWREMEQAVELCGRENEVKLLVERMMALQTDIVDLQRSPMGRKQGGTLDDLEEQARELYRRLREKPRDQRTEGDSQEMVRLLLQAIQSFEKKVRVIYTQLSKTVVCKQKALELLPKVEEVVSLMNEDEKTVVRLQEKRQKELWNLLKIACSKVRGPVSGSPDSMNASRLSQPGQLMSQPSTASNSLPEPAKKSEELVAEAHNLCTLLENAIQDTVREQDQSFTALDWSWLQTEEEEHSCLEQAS

[9] = target: Cyclin-dependent kinase 19 (Homo sapiens) (UniProt Q9BWU1); conditions: Compound concentration 1000.0 nM
Cyclin-dependent kinase 19 (Homo sapiens), sequence (Q9BWU1 whole entry): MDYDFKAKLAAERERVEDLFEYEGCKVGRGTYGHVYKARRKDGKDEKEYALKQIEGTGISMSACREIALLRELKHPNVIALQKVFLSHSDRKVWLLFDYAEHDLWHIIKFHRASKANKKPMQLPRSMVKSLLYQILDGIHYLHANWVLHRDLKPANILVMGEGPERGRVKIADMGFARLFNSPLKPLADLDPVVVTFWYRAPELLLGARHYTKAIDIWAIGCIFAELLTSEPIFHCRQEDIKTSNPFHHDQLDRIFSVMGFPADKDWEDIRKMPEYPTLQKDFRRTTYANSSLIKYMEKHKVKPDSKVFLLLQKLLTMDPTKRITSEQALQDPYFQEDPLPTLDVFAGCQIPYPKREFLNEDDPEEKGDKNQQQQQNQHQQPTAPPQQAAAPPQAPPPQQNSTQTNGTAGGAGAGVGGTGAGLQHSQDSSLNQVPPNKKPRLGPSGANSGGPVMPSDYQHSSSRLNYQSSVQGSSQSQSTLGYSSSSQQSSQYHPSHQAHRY

[10] = target: Mitogen-activated protein kinase kinase kinase kinase 3 (Homo sapiens) (UniProt Q8IVH8); conditions: Compound concentration 1000.0 nM
Mitogen-activated protein kinase kinase kinase kinase 3 (Homo sapiens), sequence (Q8IVH8 whole entry): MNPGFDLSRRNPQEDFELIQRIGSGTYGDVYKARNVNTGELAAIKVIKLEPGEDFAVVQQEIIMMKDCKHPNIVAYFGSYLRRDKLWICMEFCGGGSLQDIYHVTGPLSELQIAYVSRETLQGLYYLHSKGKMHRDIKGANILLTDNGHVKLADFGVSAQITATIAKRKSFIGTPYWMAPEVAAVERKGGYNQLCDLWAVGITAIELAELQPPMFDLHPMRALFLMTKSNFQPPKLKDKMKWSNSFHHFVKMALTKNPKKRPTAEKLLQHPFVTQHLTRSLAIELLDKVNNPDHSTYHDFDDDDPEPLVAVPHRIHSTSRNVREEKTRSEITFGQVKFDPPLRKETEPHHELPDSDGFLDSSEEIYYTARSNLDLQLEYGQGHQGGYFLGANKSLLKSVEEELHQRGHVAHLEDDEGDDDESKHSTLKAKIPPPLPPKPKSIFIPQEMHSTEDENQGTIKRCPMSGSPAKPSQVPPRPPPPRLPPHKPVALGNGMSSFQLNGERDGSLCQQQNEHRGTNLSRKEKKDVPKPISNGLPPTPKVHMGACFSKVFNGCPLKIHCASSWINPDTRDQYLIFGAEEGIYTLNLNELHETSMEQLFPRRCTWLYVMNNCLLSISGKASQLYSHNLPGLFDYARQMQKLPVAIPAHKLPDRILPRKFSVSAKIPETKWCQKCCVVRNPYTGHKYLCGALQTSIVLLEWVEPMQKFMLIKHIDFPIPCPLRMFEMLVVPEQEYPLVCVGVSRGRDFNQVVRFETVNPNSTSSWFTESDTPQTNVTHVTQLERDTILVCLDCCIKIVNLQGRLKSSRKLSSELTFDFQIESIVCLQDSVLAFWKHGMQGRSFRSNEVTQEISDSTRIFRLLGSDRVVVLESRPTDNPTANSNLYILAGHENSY

[11] = target: SRSF protein kinase 2 (Homo sapiens) (UniProt P78362); conditions: Compound concentration 1000.0 nM
[12] = target: Serine/threonine-protein kinase BRSK2 (Homo sapiens) (UniProt Q8IWQ3); conditions: Compound concentration 1000.0 nM
Serine/threonine-protein kinase BRSK2 (Homo sapiens), sequence (Q8IWQ3 whole entry): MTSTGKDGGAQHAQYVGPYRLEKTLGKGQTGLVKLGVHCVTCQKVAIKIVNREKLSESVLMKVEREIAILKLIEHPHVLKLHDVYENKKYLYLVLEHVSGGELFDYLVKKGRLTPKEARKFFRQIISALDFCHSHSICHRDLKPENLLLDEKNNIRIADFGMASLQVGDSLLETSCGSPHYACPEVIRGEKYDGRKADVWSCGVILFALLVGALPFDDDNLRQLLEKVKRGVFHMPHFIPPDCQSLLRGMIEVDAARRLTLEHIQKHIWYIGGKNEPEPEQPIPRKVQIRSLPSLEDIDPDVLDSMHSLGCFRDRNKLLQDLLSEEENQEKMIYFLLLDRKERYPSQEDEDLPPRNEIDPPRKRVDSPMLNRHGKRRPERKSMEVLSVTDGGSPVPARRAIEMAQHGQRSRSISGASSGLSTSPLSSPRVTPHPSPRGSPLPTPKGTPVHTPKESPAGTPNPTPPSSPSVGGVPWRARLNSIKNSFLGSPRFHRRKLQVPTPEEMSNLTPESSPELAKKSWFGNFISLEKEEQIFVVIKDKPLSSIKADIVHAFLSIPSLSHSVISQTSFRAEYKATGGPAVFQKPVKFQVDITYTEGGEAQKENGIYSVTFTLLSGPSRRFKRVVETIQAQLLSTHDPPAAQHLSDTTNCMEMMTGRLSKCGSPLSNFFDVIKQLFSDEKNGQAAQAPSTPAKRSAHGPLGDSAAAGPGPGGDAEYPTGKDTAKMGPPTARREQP

[13] = target: Platelet-derived growth factor receptor alpha (Homo sapiens) (UniProt P16234); conditions: Compound concentration 1000.0 nM
Platelet-derived growth factor receptor alpha (Homo sapiens), sequence (P16234 whole entry): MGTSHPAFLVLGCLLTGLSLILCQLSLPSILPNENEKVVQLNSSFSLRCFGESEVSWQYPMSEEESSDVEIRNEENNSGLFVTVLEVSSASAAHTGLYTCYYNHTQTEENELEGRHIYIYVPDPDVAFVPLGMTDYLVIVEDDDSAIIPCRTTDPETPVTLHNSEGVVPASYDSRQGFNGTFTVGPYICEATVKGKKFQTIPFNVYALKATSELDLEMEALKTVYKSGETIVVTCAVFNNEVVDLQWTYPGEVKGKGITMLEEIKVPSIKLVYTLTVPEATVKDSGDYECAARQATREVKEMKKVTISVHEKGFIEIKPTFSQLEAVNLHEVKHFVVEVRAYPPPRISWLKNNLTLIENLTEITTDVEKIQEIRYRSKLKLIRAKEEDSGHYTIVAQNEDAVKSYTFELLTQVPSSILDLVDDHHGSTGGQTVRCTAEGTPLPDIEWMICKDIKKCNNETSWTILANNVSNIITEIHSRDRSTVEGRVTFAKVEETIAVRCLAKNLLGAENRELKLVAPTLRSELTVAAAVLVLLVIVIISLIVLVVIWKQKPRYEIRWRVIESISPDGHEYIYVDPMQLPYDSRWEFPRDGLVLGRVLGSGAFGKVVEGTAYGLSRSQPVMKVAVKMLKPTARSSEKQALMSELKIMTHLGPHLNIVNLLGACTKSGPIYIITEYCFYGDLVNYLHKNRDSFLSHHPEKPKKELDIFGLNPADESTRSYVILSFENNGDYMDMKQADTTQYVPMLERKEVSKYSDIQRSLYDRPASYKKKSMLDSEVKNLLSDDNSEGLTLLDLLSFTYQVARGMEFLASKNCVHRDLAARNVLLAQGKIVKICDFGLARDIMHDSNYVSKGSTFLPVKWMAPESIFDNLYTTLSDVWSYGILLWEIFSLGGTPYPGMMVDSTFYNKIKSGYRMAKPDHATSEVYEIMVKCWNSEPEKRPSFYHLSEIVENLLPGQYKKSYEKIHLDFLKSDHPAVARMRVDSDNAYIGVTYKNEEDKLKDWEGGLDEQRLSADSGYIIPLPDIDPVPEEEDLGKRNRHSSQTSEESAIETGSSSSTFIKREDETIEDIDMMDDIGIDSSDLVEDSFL

[14] = target: T3, Testis-specific serine/threonine-protein kinase 3 (Homo sapiens) (UniProt Q96PN8); conditions: Compound concentration 1000.0 nM
T3 sequence (whole entry): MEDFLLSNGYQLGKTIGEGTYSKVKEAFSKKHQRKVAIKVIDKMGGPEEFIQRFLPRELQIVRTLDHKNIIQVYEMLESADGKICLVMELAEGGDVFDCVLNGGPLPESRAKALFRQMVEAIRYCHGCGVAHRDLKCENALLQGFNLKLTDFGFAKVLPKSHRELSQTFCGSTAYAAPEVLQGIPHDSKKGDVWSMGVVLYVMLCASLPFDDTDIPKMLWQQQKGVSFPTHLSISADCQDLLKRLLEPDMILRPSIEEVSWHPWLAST

[15] = target: Tyrosine-protein kinase JAK1 (Homo sapiens) (UniProt P23458); conditions: Compound concentration 1000.0 nM
[16] = target: Ribosomal protein S6 kinase alpha-3 (Homo sapiens) (UniProt P51812); conditions: Compound concentration 1000.0 nM

CN(C)C(=O)Cn1cc(-c2nc(C3(c4ccc(-c5cnc(N)nc5)cc4)CC3)no2)cn1 [BI 0153]
inactive: inhibition (Rattus norvegicus) 7.97% | residual activity [1] 89% | residual activity [2] 89% | residual activity [3] 92% | residual activity [4] 100% | residual activity [5] 78% | residual activity [6] 100% | residual activity [7] 72% | residual activity [8] 90% | residual activity [9] 93% | residual activity [10] 89% | residual activity [11] 91% | residual activity [12] 77% | residual activity [13] 83% | residual activity [14] 97% | residual activity [15] 76% | residual activity [16] 85%

CN(C)C(=O)Cn1cc(-c2nc([C@@](C)(c3ccc(-c4cnc(N)nc4)cc3)C3CC3)no2)cn1 [BI 665915]
inactive: inhibition (Rattus norvegicus) 1.51% | residual activity [1] 100% | residual activity [2] 100% | residual activity [3] 87% | residual activity [4] 100% | residual activity [5] 51% | residual activity [6] 80% | residual activity [7] 95% | residual activity [8] 100% | residual activity [9] 100% | residual activity [10] 100% | residual activity [11] 100% | residual activity [12] 100% | residual activity [13] 100% | residual activity [14] 68% | residual activity [15] 100% | residual activity [16] 100%
